Data reported in ChEMBL document CHEMBL1145176, “Somatostatin receptor 1 selective analogues: 2. N(alpha)-Methylated scan” (J Med Chem, 2005).
Positions of bridges follow the written chain, without caps; N, C: chain ends. Non-standard residues stand in square brackets, D forms with d. Residues, ends and D or L forms follow the SMILES beside them. NMePhe(4-CH2NHiPr) = CN[C@@H](Cc1ccc(CNC(C)C)cc1)C(=O)O; Phe(4-CH2NHiPr) = CC(C)NCc1ccc(C[C@H](N)C(=O)O)cc1; d2Nal = N[C@H](Cc1ccc2ccccc2c1)C(=O)O; NMeS = CN[C@@H](CO)C(=O)O

Columns and labels:
[1] = molecular target: Somatostatin receptor type 1 (Homo sapiens, UniProt P30872); test: Inhibition of [Leu8,D-Trp22,125I-Tyr25]SRIF-28 binding to human somatostatin receptor type 1
[2] = molecular target: Somatostatin receptor type 5 (Homo sapiens, UniProt P35346); test: Inhibition of [Leu8,D-Trp22,125I-Tyr25]SRIF-28 binding to human somatostatin receptor type 5
[3] = molecular target: Somatostatin receptor type 2 (Homo sapiens, UniProt P30874); test: Inhibition of [Leu8,D-Trp22,125I-Tyr25]SRIF-28 binding to human somatostatin receptor type 2
[4] = molecular target: Somatostatin receptor type 3 (Homo sapiens, UniProt P32745); test: Inhibition of [Leu8,D-Trp22,125I-Tyr25]SRIF-28 binding to human somatostatin receptor type 3
Somatostatin receptor type 3, sequence (P32745 whole entry): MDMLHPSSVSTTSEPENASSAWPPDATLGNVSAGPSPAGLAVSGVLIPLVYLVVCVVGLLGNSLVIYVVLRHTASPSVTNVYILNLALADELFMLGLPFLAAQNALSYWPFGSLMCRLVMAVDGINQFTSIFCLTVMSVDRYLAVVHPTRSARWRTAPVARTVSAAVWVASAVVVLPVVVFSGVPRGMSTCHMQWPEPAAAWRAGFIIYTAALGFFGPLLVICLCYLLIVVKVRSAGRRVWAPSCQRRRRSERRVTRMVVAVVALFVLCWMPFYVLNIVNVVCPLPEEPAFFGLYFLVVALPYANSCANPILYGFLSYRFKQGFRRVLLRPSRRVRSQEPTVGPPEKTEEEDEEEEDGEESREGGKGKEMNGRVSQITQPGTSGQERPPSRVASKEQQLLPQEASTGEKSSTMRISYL

Somatostatin receptor type 2, sequence (P30874 whole entry): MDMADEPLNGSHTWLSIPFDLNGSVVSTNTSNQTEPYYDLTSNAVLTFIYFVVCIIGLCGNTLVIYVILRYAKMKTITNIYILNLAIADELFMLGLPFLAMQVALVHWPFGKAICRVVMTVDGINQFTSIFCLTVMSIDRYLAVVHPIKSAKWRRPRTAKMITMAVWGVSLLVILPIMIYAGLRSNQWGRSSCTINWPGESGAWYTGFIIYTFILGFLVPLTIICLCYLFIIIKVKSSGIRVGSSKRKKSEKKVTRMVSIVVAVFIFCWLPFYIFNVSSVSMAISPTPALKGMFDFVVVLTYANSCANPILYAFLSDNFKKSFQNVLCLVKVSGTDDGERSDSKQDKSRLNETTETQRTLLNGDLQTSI
Somatostatin receptor type 5, sequence (P35346 whole entry): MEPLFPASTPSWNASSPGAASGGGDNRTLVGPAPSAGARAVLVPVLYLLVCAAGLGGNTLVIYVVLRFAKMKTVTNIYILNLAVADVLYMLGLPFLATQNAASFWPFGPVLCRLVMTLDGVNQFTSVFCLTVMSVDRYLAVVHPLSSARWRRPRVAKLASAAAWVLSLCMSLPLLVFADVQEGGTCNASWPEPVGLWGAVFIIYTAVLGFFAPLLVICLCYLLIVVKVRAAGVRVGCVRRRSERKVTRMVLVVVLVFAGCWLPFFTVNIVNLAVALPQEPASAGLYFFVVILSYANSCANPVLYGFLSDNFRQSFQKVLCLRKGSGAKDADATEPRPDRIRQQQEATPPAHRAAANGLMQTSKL
Somatostatin receptor type 1, sequence (P30872 whole entry): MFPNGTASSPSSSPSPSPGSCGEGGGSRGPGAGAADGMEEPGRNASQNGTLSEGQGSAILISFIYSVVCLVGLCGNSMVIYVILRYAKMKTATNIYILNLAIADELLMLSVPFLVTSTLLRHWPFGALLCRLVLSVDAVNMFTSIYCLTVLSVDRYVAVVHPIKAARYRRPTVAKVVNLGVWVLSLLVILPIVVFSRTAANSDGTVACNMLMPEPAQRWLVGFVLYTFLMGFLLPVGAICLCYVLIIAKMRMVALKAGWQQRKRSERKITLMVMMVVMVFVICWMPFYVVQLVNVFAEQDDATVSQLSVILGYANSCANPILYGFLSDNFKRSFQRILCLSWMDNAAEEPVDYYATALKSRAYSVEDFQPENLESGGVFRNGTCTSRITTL

| IC50 [1] [nM] | IC50 [2] [nM] | IC50 [3] [nM] | IC50 [4] [nM] | SMILES |
| --- | --- | --- | --- | --- |
| 0.98 | – | – | – | C[C@H](N)C(=O)NCC(=O)N[C@H]1CSSC[C@@H](C(=O)O)NC(=O)[C@H](CO)NC(=O)[C@H]([C@@H](C)O)NC(=O)[C@H](Cc2ccccc2)NC(=O)[C@H]([C@@H](C)O)NC(=O)[C@H](CCCCN)NC(=O)[C@@H](Cc2c[nH]c3ccccc23)NC(=O)[C@H](Cc2ccccc2)NC(=O)[C@H](Cc2ccccc2)NC(=O)[C@H](CCCCN)NC1=O (H-AGCKFF[dW]KTFTSC-OH; disulfide 3-13) |
| 69 | > 1000 | – | – | CC(C)NCc1ccc(C[C@H]2C(=O)N[C@@H]([C@@H](C)O)C(=O)N[C@@H](Cc3ccccc3)C(=O)N[C@@H]([C@@H](C)O)C(=O)N[C@@H](CO)C(=O)N[C@H](C(=O)O)CSSC[C@H](N)C(=O)N[C@@H](CCCCN)C(=O)N[C@@H](Cc3ccccc3)C(=O)N[C@@H](Cc3ccccc3)C(=O)N[C@H](Cc3ccc4ccccc4c3)C(=O)N2C)cc1 (H-CKFF[d2Nal][NMePhe(4-CH2NHiPr)]TFTSC-OH; disulfide 1-11) |
| 25 | > 1000 | > 1000 | – | CC(C)NCc1ccc(C[C@H]2C(=O)N[C@@H]([C@@H](C)O)C(=O)N[C@@H](Cc3ccc(O)cc3)C(=O)N[C@@H]([C@@H](C)O)C(=O)N[C@@H](CO)C(=O)N[C@H](C(=O)O)CSSC[C@H](N)C(=O)N[C@@H](CCCCN)C(=O)N[C@@H](Cc3ccccc3)C(=O)N[C@@H](Cc3ccccc3)C(=O)N[C@H](Cc3ccc4ccccc4c3)C(=O)N2C)cc1 (H-CKFF[d2Nal][NMePhe(4-CH2NHiPr)]TYTSC-OH; disulfide 1-11) |
| 248 | > 1000 | – | – | CC(C)NCc1ccc(C[C@@H]2NC(=O)[C@@H](Cc3ccc4ccccc4c3)NC(=O)[C@H](Cc3ccccc3)NC(=O)[C@H](Cc3ccccc3)NC(=O)[C@H](CCCCN)NC(=O)[C@@H](N)CSSC[C@@H](C(=O)O)NC(=O)[C@H](CO)NC(=O)[C@H]([C@@H](C)O)NC(=O)[C@H](Cc3ccccc3)NC(=O)[C@H]([C@@H](C)O)NC2=O)cc1 (H-CKFF[d2Nal][Phe(4-CH2NHiPr)]TFTSC-OH; disulfide 1-11) |
| – | > 1000 | > 1000 | – | CC(C)NCc1ccc(C[C@H]2C(=O)N[C@@H]([C@@H](C)O)C(=O)N[C@@H](Cc3ccc(O)cc3)C(=O)N[C@@H]([C@@H](C)O)C(=O)N[C@@H](CO)C(=O)N[C@H](C(=O)O)CSSC[C@H](N)C(=O)N[C@@H](CCCCN)C(=O)N[C@@H](Cc3ccccc3)C(=O)N[C@@H](Cc3ccccc3)C(=O)N[C@H](Cc3c[nH]c4ccccc34)C(=O)N2C)cc1 (H-CKFF[dW][NMePhe(4-CH2NHiPr)]TYTSC-OH; disulfide 1-11) |
| 33 | – | – | – | CC(C)NCc1ccc(C[C@@H]2NC(=O)[C@@H](Cc3c[nH]c4ccccc34)NC(=O)[C@H](Cc3ccccc3)NC(=O)[C@H](Cc3ccccc3)NC(=O)[C@H](CCCCN)NC(=O)[C@@H](N)CSSC[C@@H](C(=O)O)NC(=O)[C@H](CO)NC(=O)[C@H]([C@@H](C)O)NC(=O)[C@H](Cc3ccccc3)NC(=O)[C@H]([C@@H](C)O)NC2=O)cc1 (H-CKFF[dW][Phe(4-CH2NHiPr)]TFTSC-OH; disulfide 1-11) |
| 23 | – | > 1000 | > 1000 | CC(C)NCc1ccc(C[C@@H]2NC(=O)[C@@H](Cc3c[nH]c4ccccc34)NC(=O)[C@H](Cc3ccccc3)NC(=O)[C@H](Cc3ccccc3)NC(=O)[C@H](CCCCN)NC(=O)[C@@H](N)CSSC[C@@H](C(=O)O)NC(=O)[C@H](CO)N(C)C(=O)[C@H]([C@@H](C)O)NC(=O)[C@H](Cc3ccccc3)NC(=O)[C@H]([C@@H](C)O)NC2=O)cc1 (H-CKFF[dW][Phe(4-CH2NHiPr)]TFT[NMeS]C-OH; disulfide 1-11) |
